Experiments:
[1] = system: P388; assay: Cytotoxicity against mouse P388 cells after 72 hrs by MTT assay; assay type: functional, cell-based; settings: P388, 72 h
[2] = system: Bacillus subtilis; assay: Antibacterial activity against Bacillus subtilis ATCC 19659 at 30 ug; assay type: functional; settings: read-out: IZ
[3] = system: Trichophyton mentagrophytes; assay: Antifungal activity against Trichophyton mentagrophytes ATCC 28185 at 100 IU; assay type: functional, organism-based
[4] = system: Amorphotheca resinae; assay: Antifungal activity against Cladosporium resinae at 100 IU; assay type: functional, organism-based

Row | Compound | IC50 [1] [µM] | also measured
1 | COc1cc2c3c(ccc(-c4ccccc4)c3c1OC)C(=O)OC2=O | > 26 | –
2 | O=C(N[C@H](CO)[C@H](O)c1ccc([N+](=O)[O-])cc1)C(Cl)Cl [CHLORAMPHENICOL] | – | zone of inhibition at 30 µg/disc [2]: 12 mm
3 | COC1=Cc2cc(O)c(O[C@@H]3O[C@H](CO)[C@@H](O)[C@H](O)[C@H]3O)c3c(-c4ccccc4)ccc(c23)C1=O [DILATRIN] | > 26 | –
4 | COc1c(O)cc2c3c(ccc(-c4ccc(O)cc4)c13)C(=O)OC2=O [HAEMODOROL] | > 26 | –
5 | COc1c(O)cc2c3c(ccc(-c4ccccc4)c13)C(=O)OC2=O [HAEMODORONE] | > 26 | –
6 | COc1cc2c3c(ccc(-c4ccccc4)c3c1O[C@@H]1O[C@H](CO)[C@@H](O)[C@H](O)[C@H]1O)C(=O)OC2 [HAEMODOROSE] | > 26 | –
7 | COC1=Cc2cc(OC)c(O)c3c(-c4ccccc4)ccc(c23)C1=O [XIPHIDONE] | > 26 | –
8 | NYSTATIN | – | inhibition zone (IZ) [3]: 6 mm; inhibition zone (IZ) [4]: 10 mm

Reference: ChEMBL document CHEMBL1153021, “Phenylphenalenones from the Australian plant Haemodorum simplex” (J Nat Prod, 2009)
